{
  "source": "patent US10206898B2",
  "about": "“Compositions and methods for treating or preventing obesity in a subject in need thereof” (Amarin Pharmaceuticals Ireland Limited, priority 2013, dated 2019)",
  "system": "patients with fasting triglyceride levels ≥200 mg/dl and <500 mg/dl despite statin therapy",
  "experiment": "12-week placebo-controlled, randomized, double-blind study: lipoprotein particle concentrations",
  "format": "in vivo, human",
  "method": "A multi-center, placebo-controlled, randomized, double-blind, 12-week study was performed to evaluate the efficacy and safety of >96% E-EPA in patients with fasting triglyceride levels ≥200 mg/dl and <500 mg/dl despite statin therapy (the mean of two qualifying entry values needed to be ≥185 mg/dl and at least one of the values needed to be ≥200 mg/dl). The primary objective of the study was to determine the efficacy of >96% E-EPA 2 g daily and 4 g daily, compared to placebo, in lowering fasting TG levels in patients with high risk for cardiovascular disease and with fasting TG levels ≥200 mg/dl and <500 mg/dl, despite treatment to LDL-C goal on statin therapy. The population for this study was men and women >18 years of age with a body mass index ≤45 kg/m^2 with fasting TG levels greater than or equal to 200 mg/dl and less than 500 mg/dl and on a stable does of statin therapy (with or without ezetimibe). The statin was atorvostatin, rosuvastatin or simvastatin. The dose of statin must have been stable for ≥4 weeks prior to the LDL-C/TG baseline qualifying measurement for randomization. The statin dose was optimized such that the patients are at their LDL-C goal at the LDL-C/TG baseline qualifying measurements. The same statin at the same dose was continued until the study ended. Approximately 702 patients were randomized at approximately 80 centers in the U.S. The study was a 18- to 20-week, Phase 3, multi-center study consisting of 2 study periods: (1) A 6- to 8-week screening period that included a diet and lifestyle stabilization, a non-statin lipid-altering treatment washout, and an LDL-C and TG qualifying period and (2) A 12-week, double-blind, randomized, placebo-controlled treatment period. After confirmation of qualifying fasting LDL-C and TG values, eligible patients entered a 12-week, randomized, double-blind treatment period. At Visit 4 (Week 0), patients were randomly assigned to 1 of the following treatment groups: • >96% E-EPA 2 g daily, • >96% E-EPA 4 g daily, or • Placebo. Eligible patients were randomly assigned at Visit 4 (Week 0) to receive orally >96% E-EPA 2 g daily, >96% E-EPA 4 g daily, or placebo. >96% E-EPA was provided in 1 g liquid-filled, oblong, gelatin capsules. The matching placebo capsule was filled with light liquid paraffin and contained 0 g of >96% E-EPA. >96% E-EPA capsules were to be taken with food (i.e. with or at the end of a meal). […]",
  "data": [
    {"smiles": "CC/C=C\\C/C=C\\C/C=C\\C/C=C\\C/C=C\\CCCC(=O)OCC", "note": "[Ethyl Eicosapentaenoate, ethyl eicosapentaenoate]", "values": [
      {"measurement": "reduction of median concentrations of total HDL over baseline when adjusted for placebo", "setting": "4 g per day, stated as a reduction (P<0.0001)", "value": 7.4, "unit": "%"},
      {"measurement": "reduction of median concentrations of total LDL over baseline when adjusted for placebo", "setting": "4 g per day, stated as a reduction (P<0.01)", "value": 7.7, "unit": "%"},
      {"measurement": "HDL % Change (placebo-adjusted, relative to baseline)", "setting": "4 g/day, 12 weeks, statin-treated patients, median total HDL particle concentration", "value": "−7.4", "unit": "%"},
      {"measurement": "LDL % Change (placebo-adjusted, relative to baseline)", "setting": "4 g/day, 12 weeks, statin-treated patients, median total LDL particle concentration", "value": "−7.7", "unit": "%"}
    ]}
  ]
}
